Patent publication US20080063699A1, “Method of Administering Cationic Liposomes Comprising an Active Drug” (priority 2003, published 2008)
In brackets after ≈: the same amount, converted by molar mass. Several values for one entry are separate records, joined by “and”; a condition that tells them apart may be missing. Identical values can stand only once. Like-named read-outs stand apart in the source and are kept apart here.

Legend:
[1] = system: Solid orthotopic L3.6pl pancreas tumor; assay: Anti-tumor efficacy in combination with gemcitabine (50 mg/kg); type: in vivo; conditions: for tumor size: day 28 after tumor inoculation, after harvest
Source text: • Species: male Balb/c nu/nu mice • Tumor model: Solid orthotopic L3.6pI pancreas tumor (highly mestastatic; Bruns C J, Harbison M T, Kuniyasu H, Eue I, Fidler I J. In vivo selection and characterization of metastatic variants from human pancreatic adenocarcinoma by using orthotopic implantation in nude mice. Neoplasia 1999; 1(1):50-62.) • Supplier: Charles River France
Tumor volume palpated at day 10, 12, 14, 17, 19, 21, 24 after inoculation and at day 26, 28 after harvesting
Necrospy after harvest at day 26 and 28

[2] = system: Solid orthotopic L3.6pl pancreas tumor; assay: Anti-tumor efficacy in combination with gemcitabine (100 mg/kg); conditions: for final tumor volume compared to the control group: day 27, Gemzar 100 mg/kg i.p., MBT-0206/paclitaxel 5 mg/kg i.v.
Method: Tumor size of L3.6pI pancreatic tumors 19 days after start of treatment. Treatment with 10% trehalose, paclitaxel, MBT-0206, Gemzar (gemcitabine) and the combination of both MBT-0206 and Gemzar started 8 days after tumor cell inoculation. Gemzar was applied i.p. at a dose of 100 mg/kg bw twice a week (Mon, Thu). paclitaxel and MBT-0206 were applied i.v. on a Mon, Wed, Fri schedule at a paclitaxel dose of 5 mg/kg bw. The combination group received both MBT-0206 and Gemzar with the respective schedule. Tumors were measured by palpation with a calliper on day 23 and 27. Mean±SEM; n=9 per group.
Metastases at day 19 after start of treatment. Treatment with 10% trehalose, paclitaxel, MBT-0206, Gemzar (gemcitabine) and the combination of both MBT-0206 and Gemzar started at day 8 after tumor cell inoculation. Geinzar was applied i.p. at a dose of 100 mg/kg bw twice a week (Mon, Thu). paclitaxel and MBT-0206 were applied i.v. on a Mon, Wed, Fri schedule at a paclitaxel dose of 5 mg/kg bw. The combination group received both MBT-0206 and Gemzar with the respective schedule, n=9 per group.
Tumor volume palpated at day 23, 26 after inoculation and after harvesting
Necrospy after harvest at day 27

[3] = system: highly drug-resistant uterus sarcoma line Mes-SA/Dx-5MBT; assay: Growth inhibitory assay (MTT, 72 h); type: cell-based, human; conditions: for IC50: Homo sapiens, MES-SA
Method: (§1) FIG. 3-5: The growth inhibitory assay was performed in 24-well plates with each drug concentration tested in duplicate (n=2 wells). 4×10^4 cells per well were seeded into a 24-well plate and incubated over night. The following day, 10-11 concentrations of the respective drug formulation were added for 72 h to cover the range depicted in the respective graphs. Finally, the cell viability was determined by a standard MTT-assay measuring the activity of mitochondrial-dehydrogenases.
(§2) The growth inhibitory assay was performed in 24-well plates with each drug concentration tested in duplicate (n=2 wells). 4×10^4 cells per well were seeded into a 24-well plate and incubated over night. The following day, 10-11 concentrations of the respective drug formulation were added for 72 h to cover the range depicted in the respective graphs. Finally, the cell viability was determined by a standard MTT-assay measuring the activity of mitochondrial dehydrogenases.
These cell lines were selected by stepwise increasing the concentration of paclitaxel in the culture medium.
(§3) The highly paclitaxel resistant derivative cell line Mes-SA/Dx-5MBT was selected with increasing paclitaxel concentrations from the commercially available line Mes-SA/Dx-5 (ATCC, {Harker, 1986 #29}).

[4] = system: moderatly drug-resistant uterus sarcoma line Mes-SA/Dx-5; assay: Growth inhibitory assay (MTT, 72 h); type: cell-based, human
Method: as §1, §3

[5] = system: drug-sensitive human uterus sarcoma line Mes-SA; assay: Growth inhibitory assay (MTT, 72 h); type: cell-based; conditions: FIG. 5
Method: as §1, §2, §3

[6] = system: highly drug-resistant murine colon carcinoma line Colon-26MBT; assay: Growth inhibitory assay (MTT, 72 h); type: cell-based; conditions: Mus musculus
Method: (§4) FIG. 6-7: The growth inhibitory assay was performed in 24-well plates with each drug concentration tested in duplicate (n=2 wells). 4×10^4 cells per well were seeded into a 24-well plate and incubated over night. The following day, 10-11 concentrations of the respective drug formulation were added for 72 h to cover the range depicted in the respective graphs. Finally, the cell viability was determined by a standard MTT-assay measuring the activity of mitochondrial dehydrogenases.

[7] = system: parental drug-sensitive murine colon carcinoma line Colon-26; assay: Growth inhibitory assay (MTT, 72 h); type: cell-based; conditions: FIG. 7
Method: as §4

[8] = system: drug-resistant human dermal melanoma line Sk-Mel28; assay: Growth inhibitory assay (MTT, 72 h); type: cell-based; conditions: SK-MEL-28, FIG. 10
Method: FIG. 10: Inhibitory Potential of paclitaxel against the drug-resistant human dermal melanoma line Sk-Mel28. The growth inhibitory assay was performed in 24-well plates with each drug concentration tested in duplicate (n=2 wells). 4×10^4 cells per well were seeded into a 24-well plate and incubated over night. The following day, 11 concentrations of the respective drug formulation were added for 72 h to cover the range depicted in the respective graphs. Finally, the cell viability was determined by a standard MTT-assay measuring the activity of mitochondrial dehydrogenases.
(§5) 2. […] In vivo, these cells were injected into SCID mice bearing human skin transplants between human skin transplant and mouse acceptor skin. Treatments were started on day 17 after tumor cell injection and extended to day 28 with doses (12.5 mg/kg b.w.) every second day. The therapeutic potential of MBT-0206 and paclitaxel were compared on day 7 after start of treatments (see table below). […] Upon treatment with MBT-0206, tumors only marginally grew to about 1/10 the size of paclitaxel (paclitaxel)-treated tumors.

Sk-Mel28 tumor = assay: Paclitaxel-resistant melanoma model with human skin transplants in vivo; design: species or system SCID mice; conditions: 12.5 mg/kg b.w. every second day
Method: as §5
Mes-SA/Dx-5MBT tumor model: tumor volumes on day 23 after start of treatment (9 treatments, i.e. 3 per week, from day 12 to day 31 after tumor cell injection) Sk-Mel tumor model: tumor volumes on day 7 after start of treatment (6 treatments very other day, i.e. from day 17 to day 28 after tumor cell injection).

Row | Compound | tumor size [1] [mm^3] | final tumor volume compared to the control group [2] [%] | weight loss (body weight) ([2]; during the last 11 days) [%] | IC50 (50% growth inhibition) ([3]; 72 h, MTT) [ng/mL] | fold increased paclitaxel tolerance compared to the parental line Mes-SA (by IC50 values) ([3]; FIG. 9) [fold] | IC50 ([3]; 72 h, MTT, read-out: IC50) [µg/mL] | IC50 ([3]; 72 h, MTT, read-out: IC50 (50% growth inhibition)) | fold lower IC50 value than in Mes-SA/Dx-5MBT [4] | IC50 [5] [ng/mL] | IC50 ([6]; FIG. 6, read-out: IC50) [µg/mL] | IC50 ([6]; read-out: IC50 (50% growth inhibition)) | sensitivity of the line for MBT-0206 and paclitaxel [7] | IC50 [8] [µg/mL] | effect on tumor development (Sk-Mel28 tumor) | mortality at day 24 ([1]; n=9 per group, MBT-0206 5 mg/kg i.v., Gemzar 50 mg/kg i.p.) [animals dead]
1 | CC(=O)O[C@H]1C(=O)[C@@]2(C)[C@H]([C@H](OC(=O)c3ccccc3)[C@]3(O)C[C@H](OC(=O)[C@H](O)[C@@H](NC(=O)c4ccccc4)c4ccccc4)C(C)=C1C3(C)C)[C@]1(OC(C)=O)CO[C@@H]1C[C@@H]2O [paclitaxel] | 536 | 68 | 2 | 867 (≈ 1.02 µM) | ~150 | 0.87 (≈ 1.02 µM) | ~1 µM and ~0.867 µg/mL | approximately 7 fold | 5.5 (≈ 0.00644 µM) | ~5 (≈ 5.86 µM) | ~5 µM and ~5 µg/mL | equally sensitive | 5.8 (≈ 6.79 µM) | completely ineffective | –
2 | Nc1ccn([C@@H]2O[C@H](CO)[C@@H](O)C2(F)F)c(=O)n1 [Gemzar, gemcitabine] | 398 | 47 | – | – | – | – | – | – | – | – | – | – | – | – | 1
